Structures can show the parent of a compound that is named as a salt.
Assay: Solubility in water
Type: physicochemical
Conditions: 500 mg upon stirring in 8 oz of room temperature water

Cn1c(=O)c2c([nH]c(=O)n2C)n(C)c1=O [1,3,7-trimethyluric acid sodium salt]
solubility in water: dissolved completely

From patent US20200046712A1, “PROCESS FOR MAKING 1,3,7- TRIMETHYLURIC ACID WATER SOLUBLE SALTS OR CO-CRYSTALS AND THEIR USAGE IN DIETARY SUPPLEMENTS OR FUNCTIONAL FOODS FORMULATIONS” (Arcadia Biotechnology Ltd., priority 2018, published 2020)
